# Experimental data taken from ChEMBL document CHEMBL1127727, “Synthesis and structure-activity relationships of novel retinoid X receptor-selective retinoids” (J Med Chem, 1994).
# How the values were obtained:
# [1] = biological target: T1, Retinoic acid receptor RXR-beta (Mus musculus, UniProt P28704); assay: Effective concentration against retinoid receptor isoform (RXR beta) expressed in CV-1 cells; format: cell-based
# T1 sequence (P28704 whole entry): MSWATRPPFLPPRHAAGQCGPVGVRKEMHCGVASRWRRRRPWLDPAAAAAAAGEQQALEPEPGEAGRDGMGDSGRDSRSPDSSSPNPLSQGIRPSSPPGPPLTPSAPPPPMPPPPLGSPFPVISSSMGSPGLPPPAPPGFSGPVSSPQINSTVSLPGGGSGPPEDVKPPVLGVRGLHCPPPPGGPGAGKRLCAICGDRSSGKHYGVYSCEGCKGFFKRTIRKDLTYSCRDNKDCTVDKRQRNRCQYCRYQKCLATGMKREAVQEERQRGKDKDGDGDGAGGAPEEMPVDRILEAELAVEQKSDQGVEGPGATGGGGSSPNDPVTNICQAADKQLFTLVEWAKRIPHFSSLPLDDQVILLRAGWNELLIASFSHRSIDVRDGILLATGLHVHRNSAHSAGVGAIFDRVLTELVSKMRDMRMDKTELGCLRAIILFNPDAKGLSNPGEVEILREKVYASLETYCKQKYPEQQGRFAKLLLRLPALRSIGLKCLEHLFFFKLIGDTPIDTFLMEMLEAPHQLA
# [2] = biological target: T1, Retinoic acid receptor RXR-beta; assay: Inhibition of [3H]9-cis-RA binding to baculovirus expressed retinoid receptor RXR beta
# [3] = biological target: T2, Retinoic acid receptor beta (Homo sapiens, UniProt P10826); assay: Effective concentration against retinoid receptor isoform (RAR beta) expressed in CV-1 cells; format: cell-based
# T2 sequence (P10826 whole entry): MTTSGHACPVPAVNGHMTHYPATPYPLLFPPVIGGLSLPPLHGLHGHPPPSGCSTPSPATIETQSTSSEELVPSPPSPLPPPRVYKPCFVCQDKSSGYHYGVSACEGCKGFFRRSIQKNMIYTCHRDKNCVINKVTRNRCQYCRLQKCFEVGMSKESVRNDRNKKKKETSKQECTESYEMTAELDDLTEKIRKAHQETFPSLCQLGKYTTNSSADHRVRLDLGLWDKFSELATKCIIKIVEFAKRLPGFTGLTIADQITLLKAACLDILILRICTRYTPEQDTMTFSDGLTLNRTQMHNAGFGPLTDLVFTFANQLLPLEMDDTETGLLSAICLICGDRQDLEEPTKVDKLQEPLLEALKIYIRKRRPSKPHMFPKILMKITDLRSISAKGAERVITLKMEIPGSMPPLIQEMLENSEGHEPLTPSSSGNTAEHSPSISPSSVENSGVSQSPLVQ
# [4] = biological target: T2, Retinoic acid receptor beta; assay: Inhibition of [3H]ATRA binding to baculovirus expressed retinoid receptor RAR beta
# [5] = biological target: T3, Retinoic acid receptor gamma (Homo sapiens, UniProt P13631); assay: Effective concentration against retinoid receptor isoform (RAR gamma) expressed in CV-1 cells; format: cell-based
# T3 sequence (P13631 whole entry): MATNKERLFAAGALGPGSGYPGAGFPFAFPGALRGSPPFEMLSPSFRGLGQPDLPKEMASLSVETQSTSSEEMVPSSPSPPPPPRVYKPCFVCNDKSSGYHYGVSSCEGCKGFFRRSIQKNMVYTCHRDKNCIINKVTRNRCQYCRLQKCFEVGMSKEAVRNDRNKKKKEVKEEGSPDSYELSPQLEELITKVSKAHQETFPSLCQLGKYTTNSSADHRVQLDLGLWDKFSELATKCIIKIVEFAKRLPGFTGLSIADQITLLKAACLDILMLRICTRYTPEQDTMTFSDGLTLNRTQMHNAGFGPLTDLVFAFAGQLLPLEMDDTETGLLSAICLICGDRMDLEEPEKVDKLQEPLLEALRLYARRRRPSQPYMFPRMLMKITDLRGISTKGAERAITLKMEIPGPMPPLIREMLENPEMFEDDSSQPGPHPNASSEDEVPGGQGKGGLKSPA
# [6] = biological target: T4, Retinoic acid receptor alpha (Homo sapiens, UniProt P10276); assay: Effective concentration against retinoid receptor isoform (RAR alpha) expressed in CV-1 cells; format: cell-based
# T4 sequence (P10276 whole entry): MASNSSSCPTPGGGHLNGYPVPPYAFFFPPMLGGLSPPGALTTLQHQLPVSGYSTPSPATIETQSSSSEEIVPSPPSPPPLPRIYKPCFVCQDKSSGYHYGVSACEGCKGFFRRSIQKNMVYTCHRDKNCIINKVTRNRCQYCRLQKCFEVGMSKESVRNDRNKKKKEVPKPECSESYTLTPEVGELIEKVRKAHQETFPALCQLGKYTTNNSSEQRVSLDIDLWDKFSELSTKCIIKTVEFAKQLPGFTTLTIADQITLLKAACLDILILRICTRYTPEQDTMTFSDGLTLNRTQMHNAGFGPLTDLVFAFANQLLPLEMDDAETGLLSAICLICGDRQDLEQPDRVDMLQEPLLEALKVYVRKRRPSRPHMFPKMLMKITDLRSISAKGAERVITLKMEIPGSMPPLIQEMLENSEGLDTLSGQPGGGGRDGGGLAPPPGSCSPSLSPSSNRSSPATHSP
# [7] = biological target: T4, Retinoic acid receptor alpha; assay: Inhibition of [3H]-ATRA binding to baculovirus expressed retinoid receptor RAR alpha
# [8] = biological target: T5, Retinoic acid receptor RXR-gamma (Mus musculus, UniProt P28705); assay: Effective concentration against retinoid receptor isoform (RXR gamma) expressed in CV-1 cells; format: cell-based
# T5 sequence (P28705 whole entry): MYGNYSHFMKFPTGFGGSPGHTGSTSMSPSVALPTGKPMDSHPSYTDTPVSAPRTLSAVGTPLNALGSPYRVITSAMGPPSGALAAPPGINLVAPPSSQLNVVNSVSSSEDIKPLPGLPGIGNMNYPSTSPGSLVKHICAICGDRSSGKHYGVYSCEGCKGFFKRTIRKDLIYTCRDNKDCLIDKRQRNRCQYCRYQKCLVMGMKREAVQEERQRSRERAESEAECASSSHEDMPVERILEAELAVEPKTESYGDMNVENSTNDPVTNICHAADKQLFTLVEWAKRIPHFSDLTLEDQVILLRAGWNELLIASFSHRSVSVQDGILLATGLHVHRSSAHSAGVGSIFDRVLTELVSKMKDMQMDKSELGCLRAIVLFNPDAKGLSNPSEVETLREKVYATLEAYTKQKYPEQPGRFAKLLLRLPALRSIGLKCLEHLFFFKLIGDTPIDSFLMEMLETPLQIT
# [9] = biological target: T5, Retinoic acid receptor RXR-gamma; assay: Inhibition of [3H]9-cis-RA binding to baculovirus expressed retinoid receptor RXR gamma
# [10] = biological target: T3, Retinoic acid receptor gamma; assay: Tested for binding affinity against [3H]-ATRA binding to retinoid receptor isoform (RAR gamma) expressed in baculovirus
# [11] = biological target: T6, Retinoic acid receptor RXR-alpha (Homo sapiens, UniProt P19793)
# T6 sequence (P19793 whole entry): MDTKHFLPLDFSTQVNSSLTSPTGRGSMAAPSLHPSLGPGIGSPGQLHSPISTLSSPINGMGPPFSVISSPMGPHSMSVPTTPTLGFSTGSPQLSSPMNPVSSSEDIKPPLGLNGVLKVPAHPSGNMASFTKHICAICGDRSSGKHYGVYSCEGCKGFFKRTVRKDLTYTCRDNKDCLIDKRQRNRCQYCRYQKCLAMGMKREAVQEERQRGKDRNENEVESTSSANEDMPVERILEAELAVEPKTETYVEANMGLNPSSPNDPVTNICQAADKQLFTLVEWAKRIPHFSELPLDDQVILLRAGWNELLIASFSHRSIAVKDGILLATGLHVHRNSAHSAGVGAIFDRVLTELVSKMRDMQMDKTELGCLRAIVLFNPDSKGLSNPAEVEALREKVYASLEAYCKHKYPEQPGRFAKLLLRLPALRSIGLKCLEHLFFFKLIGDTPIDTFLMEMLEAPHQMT
# Description: Inhibition of [3H]9-cis-RA binding to baculovirus expressed retinoid receptor RXR alpha
# [12] = biological target: T6, Retinoic acid receptor RXR-alpha; remark: listed apart in the source
# Description: Effective concentration against retinoid receptor isoform (RXR alpha) expressed in CV-1 cells
Structure (SMILES),EC50 [1] [nM],Kd [2] [nM],EC50 [3] [nM],Kd [4] [nM],EC50 [5] [nM],EC50 [6] [nM],Kd [7] [nM],EC50 [8] [nM],Kd [9] [nM],Kd [10] [nM],Kd [11] [nM],EC50 [12] [nM]
CC1(C)CCC(C)(C)c2cc(C(=O)c3ccc(C(=O)O)cc3)c(O)cc21,> 10000,> 1000,> 10000,> 1000,> 10000,> 10000,> 1000,> 10000,> 1000,> 1000,818,> 10000
C=C(c1ccc(C(=O)O)cc1)c1cc2c(cc1CCC)C(C)(C)CCC2(C)C,> 10000,236,> 10000,> 1000,> 10000,> 10000,> 1000,> 10000,332,> 1000,137,> 10000
COc1cc2c(cc1C(=O)c1ccc(C(=O)O)cc1)C(C)(C)CCC2(C)C,2200,> 1000,> 10000,> 1000,> 10000,> 10000,> 1000,2190,> 1000,> 1000,> 1000,2020
C=C(c1ccc(C(=O)O)cc1)c1cc2c(cc1O)C(C)(C)CCC2(C)C,202,822,2240,> 1000,> 10000,> 10000,> 1000,558,812,> 1000,487,455
CC1(C)CCC(C)(C)c2cc(C(=O)c3ccc(C(=O)O)cc3)c(F)cc21,1980,902,395,> 1000,1020,2860,> 1000,2250,911,> 1000,706,1820
CCCc1cc2c(cc1C(=O)c1ccc(C(=O)O)cc1)C(C)(C)CCC2(C)C,> 10000,371,> 10000,> 1000,> 10000,> 10000,> 1000,> 10000,704,> 1000,269,> 10000

# Second part, the compound after the results:
EC50 [1] [nM],Kd [2] [nM],EC50 [3] [nM],Kd [4] [nM],EC50 [5] [nM],EC50 [6] [nM],Kd [7] [nM],EC50 [8] [nM],Kd [9] [nM],Kd [10] [nM],Kd [11] [nM],EC50 [12] [nM],Structure (SMILES)
145,44,> 10000,> 1000,> 10000,> 10000,> 1000,136,59,> 1000,31,115,C=C(c1ccc(C(=O)O)cc1)c1cc2c(cc1CC)C(C)(C)CCC2(C)C
33,44,436,> 1000,1450,> 10000,> 1000,36,44,> 1000,27,52,C=C(c1ccc(C(=O)O)cc1)c1cc2c(cc1Cl)C(C)(C)CCC2(C)C
313,155,> 10000,> 1000,> 10000,> 10000,> 1000,357,309,> 1000,113,381,CC(C)c1cc2c(cc1C(=O)c1ccc(C(=O)O)cc1)C(C)(C)CCC2(C)C
120,150,> 10000,> 1000,> 10000,> 10000,> 1000,261,150,> 1000,105,332,CC1(C)CCC(C)(C)c2cc(C(=O)c3ccc(C(=O)O)cc3)c(Br)cc21
262,110,> 10000,> 1000,> 10000,> 10000,> 1000,225,135,> 1000,130,294,CC1(C)CCC(C)(C)c2cc(C(=O)c3ccc(C(=O)O)cc3)c(Cl)cc21
486,199,304,909,266,> 10000,944,404,290,887,150,409,C=C(c1ccc(C(=O)O)cc1)c1ccc2c(c1)C(C)(C)CCC2(C)C
810,232,> 10000,> 1000,> 10000,> 10000,> 1000,384,424,> 1000,195,514,CCc1cc2c(cc1C(=O)c1ccc(C(=O)O)cc1)C(C)(C)CCC2(C)C
289,75,> 10000,> 1000,> 10000,> 10000,> 1000,227,142,> 1000,55,207,C=C(c1ccc(C(=O)O)cc1)c1cc2c(cc1C(C)C)C(C)(C)CCC2(C)C
